According to patent US12187742B2 (XRAD Therapeutics, Inc., priority 2018, dated 2025):
Counter-ions that a name gives are not always drawn.

How the values were obtained:
ATM = ATM (Homo sapiens (Human), UniProt Q13315); assay: ATM in Cell Western Assay (pKAP1 in etoposide-treated MCF-7 cells); assay type: cell-based; conditions: MCF-7 cells, etoposide 100 μM, 1 hr, pKAP1 readout
Outline: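 Cells received compounds in a 10-dose, 3-fold series from a 1 μM final top concentration, then 100 μM etoposide, for 1 hr at 37° C. They were then fixed with paraformaldehyde and permeabilized with 0.1% Triton X-100. After immunostaining, plates were scanned on an infrared imager.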

DNA-PK = DNA-PK (Homo sapiens (Human), UniProt P78527); assay: DNA-PK Enzyme-Linked Immunosorbent Assay (phosphorylation of GST-p53 (1-101) peptide); assay type: biochemical; conditions: ELISA, ATP 20 μM
Outline: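 ELISA with plate-bound GST-p53 (1-101) phosphorylated by DNA-PK (0.1 μg/mL final) with 20 μM ATP for 1 h at 25 °C. Compounds tested over 10 3-fold doses from 100 nM top final. Phospho-p53 Ser15 detected by antibody, HRP and TMB, absorbance at 450 nm.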

ATM, sequence (Q13315 whole entry): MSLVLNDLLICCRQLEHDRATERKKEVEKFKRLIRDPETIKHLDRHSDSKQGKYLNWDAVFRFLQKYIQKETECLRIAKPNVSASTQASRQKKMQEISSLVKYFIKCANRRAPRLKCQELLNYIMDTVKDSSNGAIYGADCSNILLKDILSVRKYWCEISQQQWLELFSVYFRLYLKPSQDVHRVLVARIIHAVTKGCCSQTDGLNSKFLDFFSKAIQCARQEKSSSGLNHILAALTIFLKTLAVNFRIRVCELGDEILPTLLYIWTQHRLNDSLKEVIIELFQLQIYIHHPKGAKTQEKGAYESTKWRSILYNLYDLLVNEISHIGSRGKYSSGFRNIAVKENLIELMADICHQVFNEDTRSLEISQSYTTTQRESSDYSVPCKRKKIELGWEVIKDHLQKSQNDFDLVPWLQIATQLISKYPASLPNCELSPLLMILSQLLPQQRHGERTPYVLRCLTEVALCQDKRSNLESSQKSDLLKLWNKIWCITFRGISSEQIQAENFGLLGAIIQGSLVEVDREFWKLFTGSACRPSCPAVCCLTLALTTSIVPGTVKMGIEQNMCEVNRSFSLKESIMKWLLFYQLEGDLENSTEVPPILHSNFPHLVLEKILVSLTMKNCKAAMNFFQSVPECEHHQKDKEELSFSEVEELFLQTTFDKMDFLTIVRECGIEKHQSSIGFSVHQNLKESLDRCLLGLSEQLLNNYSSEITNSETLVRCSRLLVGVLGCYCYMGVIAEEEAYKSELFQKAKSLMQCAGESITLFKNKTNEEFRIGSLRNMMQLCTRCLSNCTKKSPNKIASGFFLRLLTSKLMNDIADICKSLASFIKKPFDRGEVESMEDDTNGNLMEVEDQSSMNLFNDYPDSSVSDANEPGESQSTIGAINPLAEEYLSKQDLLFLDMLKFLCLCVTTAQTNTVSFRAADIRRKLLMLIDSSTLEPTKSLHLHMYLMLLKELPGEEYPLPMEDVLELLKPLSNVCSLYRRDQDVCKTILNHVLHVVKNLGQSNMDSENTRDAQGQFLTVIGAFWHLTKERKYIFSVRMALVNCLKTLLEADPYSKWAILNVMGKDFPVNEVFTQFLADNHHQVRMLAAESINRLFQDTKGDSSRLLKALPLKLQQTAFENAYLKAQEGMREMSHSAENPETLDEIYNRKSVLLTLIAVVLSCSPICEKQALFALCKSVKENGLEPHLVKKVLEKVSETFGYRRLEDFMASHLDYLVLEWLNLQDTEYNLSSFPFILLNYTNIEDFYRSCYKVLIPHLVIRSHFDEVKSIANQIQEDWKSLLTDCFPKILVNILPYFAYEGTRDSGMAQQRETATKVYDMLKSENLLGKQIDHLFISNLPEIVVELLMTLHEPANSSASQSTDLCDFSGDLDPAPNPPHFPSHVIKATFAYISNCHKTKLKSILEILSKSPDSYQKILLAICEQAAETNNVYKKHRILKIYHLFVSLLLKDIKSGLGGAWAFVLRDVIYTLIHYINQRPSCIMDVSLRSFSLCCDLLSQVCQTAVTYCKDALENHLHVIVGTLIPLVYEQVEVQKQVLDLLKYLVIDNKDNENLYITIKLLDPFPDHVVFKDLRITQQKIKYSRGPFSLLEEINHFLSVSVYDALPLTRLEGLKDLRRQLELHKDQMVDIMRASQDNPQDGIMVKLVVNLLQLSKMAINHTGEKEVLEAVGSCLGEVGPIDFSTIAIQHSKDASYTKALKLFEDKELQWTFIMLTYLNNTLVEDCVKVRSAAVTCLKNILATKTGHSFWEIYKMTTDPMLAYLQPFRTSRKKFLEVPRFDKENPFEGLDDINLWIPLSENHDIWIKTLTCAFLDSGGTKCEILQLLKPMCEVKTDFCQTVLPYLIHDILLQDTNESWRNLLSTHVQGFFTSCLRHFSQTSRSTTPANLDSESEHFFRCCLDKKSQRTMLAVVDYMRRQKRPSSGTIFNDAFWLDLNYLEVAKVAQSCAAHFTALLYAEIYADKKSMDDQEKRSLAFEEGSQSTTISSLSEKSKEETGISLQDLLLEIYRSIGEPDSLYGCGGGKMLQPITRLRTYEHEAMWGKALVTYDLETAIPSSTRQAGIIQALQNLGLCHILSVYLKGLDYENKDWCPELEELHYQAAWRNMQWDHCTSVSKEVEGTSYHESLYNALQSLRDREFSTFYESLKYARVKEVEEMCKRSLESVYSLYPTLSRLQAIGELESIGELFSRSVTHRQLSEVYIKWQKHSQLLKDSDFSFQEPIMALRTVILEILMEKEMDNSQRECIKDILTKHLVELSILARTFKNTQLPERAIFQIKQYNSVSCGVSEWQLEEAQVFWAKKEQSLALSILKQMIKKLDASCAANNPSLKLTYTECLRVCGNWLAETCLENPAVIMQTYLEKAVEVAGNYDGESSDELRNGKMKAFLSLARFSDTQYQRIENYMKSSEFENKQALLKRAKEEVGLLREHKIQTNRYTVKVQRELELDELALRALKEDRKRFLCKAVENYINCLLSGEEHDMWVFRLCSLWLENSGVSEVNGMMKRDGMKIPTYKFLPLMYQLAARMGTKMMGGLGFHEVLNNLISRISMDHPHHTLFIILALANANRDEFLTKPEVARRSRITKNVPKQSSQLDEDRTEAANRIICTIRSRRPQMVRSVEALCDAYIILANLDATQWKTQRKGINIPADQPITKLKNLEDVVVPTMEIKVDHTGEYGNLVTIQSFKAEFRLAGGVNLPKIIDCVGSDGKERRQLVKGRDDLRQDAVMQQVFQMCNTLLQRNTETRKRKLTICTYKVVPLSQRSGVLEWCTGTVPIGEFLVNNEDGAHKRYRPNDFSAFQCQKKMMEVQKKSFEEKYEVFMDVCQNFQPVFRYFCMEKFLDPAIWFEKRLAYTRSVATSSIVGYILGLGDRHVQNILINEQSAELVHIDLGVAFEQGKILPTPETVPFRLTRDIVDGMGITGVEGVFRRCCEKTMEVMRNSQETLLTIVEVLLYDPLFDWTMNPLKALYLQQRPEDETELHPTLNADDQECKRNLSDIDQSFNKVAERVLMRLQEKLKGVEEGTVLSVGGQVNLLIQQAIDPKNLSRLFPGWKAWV

| SMILES | IC50 (ATM) [nM] | IC50 (DNA-PK) [nM] |
| --- | --- | --- |
| CN(C)CCCOc1ncc(-c2ccc3ncc4c(c3c2)C2(CCC2)C(=O)N4C)cc1NS(=O)(=O)CCN(C)C [Example 264, 2-(Dimethylamino)-N-(2-(3-(dimethylamino)propoxy)-5-(3′-methyl-2′-oxo-2′,3′-dihydrospiro[cyclobutane-1,1′-pyrrolo[2,3-c]quinolin]-8′-yl)pyridin-3-yl)ethane-1-sulfonamide] | 0.5 to 1 | 1 to 100 |
| COCCS(=O)(=O)Nc1cc(-c2ccc3ncc4c(c3c2)C2(CCC2)C(=O)N4C)cnc1OCCCN(C)C [Example 266, N-(2-(3-(Dimethylamino)propoxy)-5-(3′-methyl-2′-oxo-2′,3′-dihydrospiro [cyclobutane-1,1′-pyrrolo[2,3-c]quinolin]-8′-yl)pyridin-3-yl)-2-methoxyethane-1-sulfonamide] | 1 to 100 | 1 to 100 |
| CN(C)CCCOc1ncc(-c2ccc3ncc4c(c3c2F)C2(CCC2)C(=O)N4C)cc1NS(C)(=O)=O [Example 268, N-(2-(3-(Dimethylamino)propoxy)-5-(9′-fluoro-3′-methyl-2′-oxo-2′,3′-dihydrospiro[cyclobutane-1,1′-pyrrolo[2,3-c]quinolin]-8′-yl)pyridin-3-yl)methanesulfonamide] | 1 to 100 | 1 to 100 |
| CN1C(=O)C2(CCC2)c2c1cnc1ccc(-c3cnc(OCCCN4CCCC(O)C4)c(NS(C)(=O)=O)c3)cc21 (stereo not shown) [Example 270, N-(2-(3-(3-Hydroxypiperidin-1-yl)propoxy)-5-(3′-methyl-2′-oxo-2′,3′-dihydrospiro[cyclobutane-1,1′-pyrrolo[2,3-c]quinolin]-8′-yl)pyridin-3-yl)methanesulfonamide] | 1 to 100 | 1 to 100 |
| CN(C)CCCOc1ncc(-c2ccc3ncc4c(c3c2)C2(CCC2)C(=O)N4C)cc1NS(=O)(=O)c1ccsc1 [Example 272, N-(2-(3-(Dimethylamino)propoxy)-5-(3′-methyl-2′-oxo-2′,3′-dihydrospiro [cyclobutane-1,1′-pyrrolo[2,3-c]quinolin]-8′-yl)pyridin-3-yl) thiophene-3-sulfonamide] | 0.5 to 1 | 1 to 100 |
| CN(C)CCCOc1ncc(-c2ccc3ncc4c(c3c2)C2(CCC2)C(=O)N4C)cc1NS(=O)(=O)CC#N [Example 273, 1-Cyano-N-(2-(3-(dimethylamino)propoxy)-5-(3′-methyl-2′-oxo-2′,3′-dihydrospiro[cyclobutane-1,1′-pyrrolo[2,3-c]quinolin]-8′-yl)pyridin-3-yl)methanesulfonamide] | 1 to 100 | < 0.5 |
| CN1C(=O)C2(CCC2)c2c1cnc1ccc(-c3cnc(N4CC(N5CCCC5)C4)c(NS(C)(=O)=O)c3)cc21 [Example 277, N-(5-(3′-Methyl-2′-oxo-2′,3′-dihydrospiro[cyclobutane-1,1′-pyrrolo[2,3-c]quinolin]-8′-yl)-2-(3-(pyrrolidin-1-yl)azetidin-1-yl)pyridin-3-yl)methanesulfonamide] | 1 to 100 | 1 to 100 |
| COCCN(C)CCCOc1ncc(-c2ccc3ncc4c(c3c2)C2(CCC2)C(=O)N4C)cc1NS(C)(=O)=O [Example 278, N-(2-(3-((2-Methoxyethyl)(methyl)amino)propoxy)-5-(3′-methyl-2′-oxo-2′,3′-dihydrospiro[cyclobutane-1,1′-pyrrolo[2,3-c]quinolin]-8′-yl)pyridin-3-yl)methanesulfonamide] | 0.5 to 1 | 1 to 100 |
| CN1C(=O)C2(CCC2)c2c1cnc1ccc(-c3cnc(OCCCN4CCC(F)C4)c(NS(C)(=O)=O)c3)cc21 (stereo not shown) [Example 279, N-(2-(3-(3-Fluoropyrrolidin-1-yl)propoxy)-5-(3′-methyl-2′-oxo-2′,3′-dihydrospiro[cyclobutane-1,1′-pyrrolo[2,3-c]quinolin]-8′-yl)pyridin-3-yl)methanesulfonamide] | 1 to 100 | 0.5 to 1 |
| COC1CCCN(CCCOc2ncc(-c3ccc4ncc5c(c4c3)C3(CCC3)C(=O)N5C)cc2NS(C)(=O)=O)C1 (stereo not shown) [Example 280, N-(2-(3-(3-Methoxypiperidin-1-yl)propoxy)-5-(3′-methyl-2′-oxo-2′,3′-dihydrospiro[cyclobutane-1,1′-pyrrolo[2,3-c]quinolin]-8′-yl)pyridin-3-yl)methanesulfonamide] | 1 to 100 | 0.5 to 1 |
| CC(C)NCCOc1ncc(-c2ccc3ncc4c(c3c2)C2(CCC2)C(=O)N4C)cc1NS(C)(=O)=O [Example 281, N-(2-(2-(Isopropylamino)ethoxy)-5-(3′-methyl-2′-oxo-2′,3′-dihydrospiro [cyclobutane-1,1′-pyrrolo[2,3-c]quinolin]-8′-yl)pyridin-3-yl)methanesulfonamide] | 1 to 100 | 0.5 to 1 |
| CN1C(=O)C2(CCC2)c2c1cnc1ccc(-c3cnc(OCCCN4CCCC(F)C4)c(NS(C)(=O)=O)c3)cc21 (stereo not shown) [Example 282, N-(2-(3-(3-Fluoropiperidin-1-yl)propoxy)-5-(3′-methyl-2′-oxo-2′,3′-dihydrospiro[cyclobutane-1,1′-pyrrolo[2,3-c]quinolin]-8′-yl)pyridin-3-yl)methanesulfonamide] | 1 to 100 | < 0.5 |
| COC1CCN(CCCOc2ncc(-c3ccc4ncc5c(c4c3)C3(CCC3)C(=O)N5C)cc2NS(C)(=O)=O)C1 (stereo not shown) [Example 283, N-(2-(3-(3-Methoxypyrrolidin-1-yl)propoxy)-5-(3′-methyl-2′-oxo-2′,3′-dihydrospiro[cyclobutane-1,1′-pyrrolo[2,3-c]quinolin]-8′-yl)pyridin-3-yl)methanesulfonamide] | 1 to 100 | 0.5 to 1 |
| CN1CCC(c2ncc(-c3ccc4ncc5c(c4c3)C3(CCC3)C(=O)N5C)cc2NS(C)(=O)=O)CC1 [Example 285, N-(5-(3′-Methyl-2′-oxo-2′,3′-dihydrospiro[cyclobutane-1,1′-pyrrolo[2,3-c]quinolin]-8′-yl)-2-(1-methylpiperidin-4-yl)pyridin-3-yl)methanesulfonamide] | 1 to 100 | 1 to 100 |
| CN1C(=O)C2(CCC2)c2c1cnc1ccc(-c3cnc(OCCCN4CCC(F)CC4)c(NS(C)(=O)=O)c3)cc21 [Example 286, N-(2-(3-(4-Fluoropiperidin-1-yl)propoxy)-5-(3′-methyl-2′-oxo-2′,3′-dihydrospiro[cyclobutane-1,1′-pyrrolo[2,3-c]quinolin]-8′-yl)pyridin-3-yl)methanesulfonamide] | 1 to 100 | < 0.5 |
| CN1C(=O)C2(CCC2)c2c1cnc1ccc(-c3cnc(OCC(O)CN4CCCCC4)c(NS(C)(=O)=O)c3)cc21 (stereo not shown) [Example 287, N-(2-(2-Hydroxy-3-(piperidin-1-yl)propoxy)-5-(3′-methyl-2′-oxo-2′,3′-dihydrospiro[cyclobutane-1,1′-pyrrolo[2,3-c]quinolin]-8′-yl)pyridin-3-yl)methanesulfonamide] | 1 to 100 | < 0.5 |
| CN1C(=O)C2(CCC2)c2c1cnc1ccc(-c3cnc(N4CC(N(C)C)C4)c(NS(=O)(=O)N(C)C)c3)cc21 [Example 288, 8′-(6-[3-(Dimethylamino)azetidin-1-yl]-5-[(dimethylsulfamoyl)amino]pyridin-3-yl}-3′-methyl-2′,3′-dihydrospiro [cyclobutane-1,1′-pyrrolo[2,3-c]quinoline]-2′-one] | 1 to 100 | 0.5 to 1 |
| Cc1ncc(S(=O)(=O)Nc2cc(-c3ccc4ncc5c(c4c3)C3(CCC3)C(=O)N5C)cnc2OCCCN(C)C)s1 [Example 289, N-(2-(3-(Dimethylamino)propoxy)-5-(3′-methyl-2′-oxo-2′,3′-dihydrospiro [cyclobutane-1,1′-pyrrolo [2,3-c]quinolin]-8′-yl)pyridin-3-yl)-2-methylthiazole-5-sulfonamide] | 1 to 100 | 0.5 to 1 |
| CN(C)CCCOc1ncc(-c2cc3c4c(cnc3cc2F)N(C)C(=O)C42CCC2)cc1NS(=O)(=O)N(C)C [Example 290, 8′-{6-[3-(Dimethylamino)propoxy]-5-[(dimethylsulfamoyl)amino]pyridin-3-yl}-7′-fluoro-3′-methyl-2′,3′-dihydrospiro[cyclobutane-1,1′-pyrrolo[2,3-c]quinoline]-2′-one hydrochloride] | 1 to 100 | 0.5 to 1 |
| CN(C)CCCOc1ncc(-c2cc3c4c(cnc3cc2F)N(C)C(=O)C42CCC2)cc1NS(C)(=O)=O [Example 291, N-(2-(3-(Dimethylamino)propoxy)-5-(7′-fluoro-3′-methyl-2′-oxo-2′,3′-dihydrospiro [cyclobutane-1,1′-pyrrolo[2,3-c]quinolin]-8′-yl)pyridin-3-yl)methanesulfonamide hydrochloride] | 1 to 100 | 1 to 100 |
| CN(CCC#N)CCCOc1ncc(-c2ccc3ncc4c(c3c2)C2(CCC2)C(=O)N4C)cc1NS(C)(=O)=O [Example 293, N-(2-(3-((2-Cyanoethyl)(methyl)amino)propoxy)-5-(3′-methyl-2′-oxo-2′3′-dihydrospiro[cyclobutane-1,1′-pyrrolo[2,3-c]quinolin]-8′-yl)pyridin-3-yl)methanesulfonamide] | > 100 | > 100 |
| COCCN(C)CCCOc1ncc(-c2cc3c4c(cnc3cc2F)N(C)C(=O)C42CCC2)cc1NS(=O)(=O)N1CCOCC1 [Example 294, N-(5-(7′-Fluoro-3′-methyl-2′-oxo-2′,3′-dihydrospiro[cyclobutane-1,1′-pyrrolo[2,3-c]quinolin]-8′-yl)-2-(3-((2-methoxyethyl)(methyl)amino)propoxy)pyridin-3-yl)morpholine-4-sulfonamide] | 1 to 100 | 1 to 100 |
| CN(C)CC(O)COc1ncc(-c2ccc3ncc4c(c3c2)C2(CCC2)C(=O)N4C)cc1NS(C)(=O)=O (stereo not shown) [Example 295, N-(2-(3-(Dimethylamino)-2-hydroxypropoxy)-5-(3′-methyl-2′-oxo-2′,3′-dihydrospiro[cyclobutane-1,1′-pyrrolo[2,3-c]quinolin]-8′-yl)pyridin-3-yl)methanesulfonamide] | 1 to 100 | 0.5 to 1 |
